Patent US9248193B2, “Formulations of phenyl uracil compounds” (AbbVie Inc., priority 2011, dated 2016)

Assay: Light degradation under ICH photo condition
Assay type: physicochemical

## COc1c(/C=C/c2ccc(NS(C)(=O)=O)cc2)cc(-n2ccc(=O)[nH]c2=O)cc1C(C)(C)C [Compound A, (E)-N-(4-(3-tert-butyl-5-(2,4-dioxo-3,4-dihydropyrimidin-1(2H)-yl)-2-methoxystyryl)phenyl)methanesulfonamide]
  Stability in solution upon exposure to light: may convert into an alternative isomer
